The text below walks through data of US9809598B2 (Merck Patent GmbH, priority 2014, dated 2017).

Structures are written as SMILES. Structures can show the parent of a compound that is named as a salt. Where two headings read alike, the source gives them in different places.

As a reminder, the IC50 is the concentration that gives 50% inhibition. A word on the EC50: it is the concentration giving half of the maximal effect.

The target of assay [1] is T1, PARP-1 (Homo sapiens, UniProt P09874).
T1 construct: purchased Enzo Life Sciences GmbH, Lörrach, Germany
Kind of assay: PARP-1 autoparsylation assay (HTRF). The note with it: His-tagged Parp-1, autoparsylation HTRF. The format is biochemical. From the text: Description of the PARP1 Assay
Biochemical Activity Testing of PARP-1: Autoparsylation Assay
The autoparsylation assay is run in two steps: the enzymatic reaction in which His-tagged Parp-1 transfers biotinylated ADP-ribose/ADP-ribose to itself from biotinylated NAD/NAD as co-substrate and the detection reaction where a time resolved FRET between cryptate labelled anti-His antibody bound to the His tag of the enzyme and Xlent® labelled-streptavidin bound the biotin-parsylation residue is analysed. The autoparsylation activity is detectable directly via the increase in HTRF signal.
The autoparsylation assay is performed as 384-well HTRF® (Cisbio, Codolet, France) assay format in Greiner low volume nb 384-well microtiter plates. […] The ratio of the emission signals is determined. The full value used is the inhibitor-free reaction. The pharmacological zero value used is Olaparib (LClabs, Woburn, US) in a final concentration of 1 μM. The inhibitory values (IC50) are determined using either the program Symyx Assay Explorer® or Condosseo® from GeneData.

Assay [2] has as its system Tankyrases. Conditions: read-out: EC50 [M] TNKS cellular assay; DLD1 cells, 24 hours, Axin2 increase.
Description: Measurement of Cellular Inhibition of Tankyrase
Cells of the colon carcinoma cell line DLD1 are plated in 96 well plates with 1.5×10^4 cells per well. Next day, cells are treated with a serial dilution of test compound in seven steps as triplicates with a final DMSO concentration of 0.3%. […] The amount of isolated Axin2 protein is determined in a Luminex^200 machine (Luminex Corporation) according to the manufacturer's instruction by counting 100 events per well. […] As controls cells are treated with solvent alone (neutral control) and with a Tankyrase reference inhibitor IWR-2 (3E−06 M) which refers as control for maximum increase of Axin2. For analysis, the obtained data are normalized against the untreated solvent control and fitted for determination of the EC50 values using the Assay Explorer software (Accelrys).
The target in assay [3] is T2, TNKS2 (Homo sapiens, UniProt Q9H2K2).
T2 construct: GST-tagged Tnks-2 (873-1166 aa, prepared in-house); made in house
Kind of assay: TNKS2 activity ELISA (autoparsylation assay). In kind it is biochemical. The method, then: (§1) Description of the TNKS1 and TNKS2 ELISA Assay
(§2) Biochemical Activity Testing of TNKS 1 and 2: Activity ELISA (Autoparsylation Assay)
(§3) For analysis of autoparsylation activity of TNKS 1 and 2 an activity ELISA iss performed: In the first step GST tagged TNKS is captured on a Glutathione coated plate. Then the activity assay with biotinylated NAD is performed in the absence/presence of the compounds. During the enzymatic reaction GST tagged TNKS transfers biotinylated ADP-ribose to itself from biotinylated NAD as co-substrate. For the detection streptavidin-HRP conjugate is added that binds to the biotinylated TNKS and is thereby captured to the plates. The amount of biotinylated resp. autoparsylated TNKS is detected with a luminescence substrate for HRP. The level of the luminescence signal correlats directly with the amount of autoparsylated TNKS and therefore with activity of TNKS.
(§4) The activity ELISA is performed in 384 well Glutathione coated microtiter plates (Express capture Glutathione coated plate, Biocat, Heidelberg, Germany). The plates are pre-equilibrated with PBS. […] The plates are washed 3 times with PBS-Tween-20. The wells are blocked by incubation at room temperature for 20 minutes with 50 μl blocking buffer (PBS, 0.05% Tween-20, 0.5% BSA). Afterwards the plates are washed 3 times with PBS-Tween-20. […] The reaction is stopped by 3 times washing with PBS-Tween-20. For the detection 50 μl of 20 ng/μl Streptavidin, HRP conjugate (MoBiTec, Göttingen, Germany) in PBS/0.05% Tween-20/0.01% BSA are added and the plates are incubated for 30 minutes at room temperature. After three times washing with PBS-Tween-20 50 μl of SuperSignal ELISA Femto Maximum sensitivity substrate solution (ThermoFisherScientific (Pierce), Bonn, Germany) are added. Following a 1 minute incubation at room temperature luminescence signals are measured with an Envision multimode reader (Perkin Elmer LAS Germany GmbH) at 700 nm. The full value used is the inhibitor-free reaction. […] The inhibitory values (IC50) are determined using either the program Symyx Assay Explorer® or Condosseo® from GeneData.
A general note: ELISA stands for enzyme-linked immunosorbent assay.

Assay [4] has as its target T3, TNKS1 (Homo sapiens, UniProt O95271).
T3 construct: GST-tagged Tnks-1 (1023-1327 aa, prepared in-house); made in house
Nature of the assay: TNKS1 activity ELISA (autoparsylation assay). The format is biochemical. The note with it: GST-tagged Tnks-1 (1023-1327 aa). The method, then:
as §1, §2, §3, §4

Setting [5] is: GST-tagged Tnks-2 (873-1166 aa), read-out: IC50 [M] TNKS2 ELISA.

T1 sequence (P09874 whole entry): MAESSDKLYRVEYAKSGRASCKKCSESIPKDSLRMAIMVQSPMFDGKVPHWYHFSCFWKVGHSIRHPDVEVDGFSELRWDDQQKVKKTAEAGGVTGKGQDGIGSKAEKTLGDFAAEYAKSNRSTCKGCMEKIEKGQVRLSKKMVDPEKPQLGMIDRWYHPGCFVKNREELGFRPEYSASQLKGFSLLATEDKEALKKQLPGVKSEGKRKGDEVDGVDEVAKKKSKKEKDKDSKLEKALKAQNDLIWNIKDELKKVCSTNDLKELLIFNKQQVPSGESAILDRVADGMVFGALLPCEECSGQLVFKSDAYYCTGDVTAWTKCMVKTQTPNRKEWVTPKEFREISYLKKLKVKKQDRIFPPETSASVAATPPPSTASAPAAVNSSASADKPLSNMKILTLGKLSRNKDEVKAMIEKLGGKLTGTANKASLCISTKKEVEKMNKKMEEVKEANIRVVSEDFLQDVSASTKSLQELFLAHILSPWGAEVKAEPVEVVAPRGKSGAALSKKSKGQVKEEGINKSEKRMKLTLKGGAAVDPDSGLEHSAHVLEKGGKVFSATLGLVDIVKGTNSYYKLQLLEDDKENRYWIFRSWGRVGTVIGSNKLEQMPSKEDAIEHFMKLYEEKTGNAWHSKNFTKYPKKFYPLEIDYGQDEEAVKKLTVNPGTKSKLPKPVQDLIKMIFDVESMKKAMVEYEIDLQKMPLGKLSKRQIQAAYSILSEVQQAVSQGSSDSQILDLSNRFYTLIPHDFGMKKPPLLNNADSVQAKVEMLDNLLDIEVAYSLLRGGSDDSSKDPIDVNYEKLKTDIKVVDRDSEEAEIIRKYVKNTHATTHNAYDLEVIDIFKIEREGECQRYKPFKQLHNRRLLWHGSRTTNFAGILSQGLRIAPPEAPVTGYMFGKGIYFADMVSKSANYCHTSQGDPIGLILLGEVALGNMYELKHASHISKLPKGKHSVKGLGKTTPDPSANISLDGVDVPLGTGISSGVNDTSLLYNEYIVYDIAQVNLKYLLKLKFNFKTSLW
T2 sequence (Q9H2K2 873-1166): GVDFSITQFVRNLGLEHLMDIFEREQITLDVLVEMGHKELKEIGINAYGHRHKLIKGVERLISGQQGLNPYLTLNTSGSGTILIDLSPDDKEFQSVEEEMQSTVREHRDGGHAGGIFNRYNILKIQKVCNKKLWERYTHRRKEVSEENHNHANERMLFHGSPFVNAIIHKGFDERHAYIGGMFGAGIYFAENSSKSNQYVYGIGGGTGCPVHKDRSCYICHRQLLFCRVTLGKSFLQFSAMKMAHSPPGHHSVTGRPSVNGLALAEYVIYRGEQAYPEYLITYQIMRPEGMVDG
T3 sequence (O95271 1023-1327): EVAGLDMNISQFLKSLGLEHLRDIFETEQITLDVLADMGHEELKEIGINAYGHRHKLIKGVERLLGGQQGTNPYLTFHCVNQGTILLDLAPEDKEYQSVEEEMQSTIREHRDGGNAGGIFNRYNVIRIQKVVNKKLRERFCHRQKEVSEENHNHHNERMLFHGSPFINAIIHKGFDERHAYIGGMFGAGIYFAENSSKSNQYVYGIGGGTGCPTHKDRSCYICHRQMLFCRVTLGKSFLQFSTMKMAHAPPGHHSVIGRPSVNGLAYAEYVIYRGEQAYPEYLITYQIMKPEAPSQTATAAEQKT

On to `COc1ccc(C(=O)C2CCN(C(=O)CCCc3cn4c(C)ccc4c(=O)[nH]3)CC2)cc1C` [Compound C3, 3-{4-[4-(4-Methoxy-3-methyl-benzoyl)-piperidin-1-yl]-4-oxo-butyl}-6-methyl-2H-pyrrolo[1,2-a]pyrazin-1-one], for which the IC50 came to 820 nM in assay [1], 1.7e-10 M in assay [3] (setting [5]) and 0.14 nM in assay [4]. Further, the EC50 in assay [2] is 2.9e-10 M.

With `COc1ccc(C(=O)C2CCN(C(=O)CCCc3cn4c(C)cnc4c(=O)[nH]3)CC2)cc1` [Compound C32, 6-{4-[4-(4-Methoxybenzoyl)-1-piperidyl]-4-oxo-butyl}-3-methyl-7H-imidazo[1,2-a]pyrazin-8-one], the half-inhibitory concentration (IC50) stood at 17000 nM in assay [1], 1.4e-10 M in assay [3] (setting [5]) and 0.12 nM in assay [4].

For the molecule `Cn1cc(C(=O)C2CCN(C(=O)CCCc3nn4cccc4c(=O)[nH]3)CC2)cn1` [Compound C146, 2-{4-[4-(1-Methyl-1H-pyrazole-4-carbonyl)-piperidin-1-yl]-4-oxo-butyl}-3H-pyrrolo[2,1-f][1,2,4]triazin-4-one], the EC50 in assay [2] is 8.7e-08 M. Moreover, the IC50 was determined as 1.4e-09 M in assay [3] (setting [5]) and 2.2 nM in assay [4].

In the case of `O=C(CCCc1nc2c(c(=O)[nH]1)COCC2)N1CCC(c2nnc(-c3ccccc3)o2)CC1` [Compound C196, 2-{4-Oxo-4-[4-(5-phenyl-[1,3,4]oxadiazol-2-yl)-piperidin-1-yl]-butyl}-3,5,7,8-tetrahydro-pyrano[4,3-d]pyrimidin-4-one], the IC50 is 6500 nM in assay [1] and 5.7e-08 M in assay [3]. In addition, the EC50 in assay [2] stood at 2e-06 M.

Turning to `CC(C)(O)c1ccc(C(=O)C2CCN(C(=O)CCCc3nc4c(c(=O)[nH]3)COCC4)CC2)cc1` [Compound C200, 2-(4-{4-[4-(1-Hydroxy-1-methyl-ethyl)-benzoyl]-piperidin-1-yl}-4-oxo-butyl)-3,5,7,8-tetrahydro-pyrano[4,3-d]pyrimidin-4-one], the EC50 in assay [2] was determined as 3.7e-06 M. Besides, the results for the IC50 in assay [3] (setting [5]) and in assay [4] were 2.2e-08 M and 170 nM, respectively.

Turning to `Cn1cc(C(=O)C2CCN(C(=O)CCCc3cn4cncc4c(=O)[nH]3)CC2)cn1` [Compound C207, 6-{4-[4-(1-Methylpyrazole-4-carbonyl)-1-piperidyl]-4-oxo-butyl}-7H-imidazo[1,5-a]pyrazin-8-one], the EC50 in assay [2] was found to be 1.1e-06 M. Besides, the IC50 came out at 2.8e-09 M in assay [3] (setting [5]) and 7.1 nM in assay [4].

Take `Cc1ccc2c(=O)[nH]c(CCCC(=O)N3CCC(C(=O)c4cnn(C(C)C)c4)CC3)cn12` [Compound C211, 3-{4-[4-(1-Isopropyl-1H-pyrazole-4-carbonyl)-piperidin-1-yl]-4-oxo-butyl}-6-methyl-2H-pyrrolo[1,2-a]pyrazin-1-one]: the values for the 50% inhibitory concentration (IC50) in assay [1] and in assay [3] were 14000 nM and 2.8e-10 M, respectively. Further, the EC50 in assay [2] was 1.4e-08 M.

On to `CC(C)n1cc(C(=O)C2CCN(C(=O)CCCc3cn4c(F)ccc4c(=O)[nH]3)CC2)cn1` [Compound C212, 6-Fluoro-3-{4-[4-(1-isopropyl-1H-pyrazole-4-carbonyl)-piperidin-1-yl]-4-oxo-butyl}-2H-pyrrolo[1,2-a]pyrazin-1-one], for which the results for the IC50 in assay [1], in assay [3] (setting [5]) and in assay [4] were 5600 nM, 1.3e-09 M and 0.39 nM, respectively.

As for `CC(C)n1cc(C(=O)C2CCN(C(=O)CCCc3nc4c(cnn4C)c(=O)[nH]3)CC2)cn1` [Compound C218, 6-{4-[4-(1-Isopropyl-1H-pyrazole-4-carbonyl)-piperidin-1-yl]-4-oxo-butyl}-1-methyl-1,5-dihydro-pyrazolo[3,4-d]pyrimidin-4-one], in assay [2], the concentration giving a half-maximal response (EC50) stood at 1.4e-07 M. For the same molecule, the 50% inhibitory concentration (IC50) amounted to 8.5e-10 M in assay [3] (setting [5]) and 2 nM in assay [4].

Turning to `CCn1cc(C(=O)C2CCN(C(=O)CCCc3nc4c(c(=O)[nH]3)COCC4)CC2)cn1` [Compound C228, 2-{4-[4-(1-Ethyl-1H-pyrazole-4-carbonyl)-piperidin-1-yl]-4-oxo-butyl}-3,5,7,8-tetrahydro-pyrano[4,3-d]pyrimidin-4-one], in assay [2], the EC50 is 2.9e-06 M. For the same molecule, the concentration for half-maximal inhibition (IC50) came out at 2.2e-09 M in assay [3] (setting [5]) and 14 nM in assay [4].

Turning to `COc1ccc(C(=O)C2CCN(C(=O)CCCc3nc(C)c(C)c(=O)[nH]3)CC2)cn1` [Compound C241, 2-{4-[4-(6-Methoxy-pyridine-3-carbonyl)-piperidin-1-yl]-4-oxo-butyl}-5,6-dimethyl-3H-pyrimidin-4-one], the EC50 in assay [2] worked out at 3.5e-08 M. In addition, the IC50 came to 4.9e-09 M in assay [3] (setting [5]) and 11 nM in assay [4].

With `Cc1nc(CCCC(=O)N2CCC(C(=O)c3cnn(C)c3)CC2)[nH]c(=O)c1C` [Compound C242, 5,6-Dimethyl-2-{4-[4-(1-methyl-1H-pyrazole-4-carbonyl)-piperidin-1-yl]-4-oxo-butyl}-3H-pyrimidin-4-one], the half-maximal effective concentration (EC50) in assay [2] was determined as 8.8e-07 M. The IC50 in assay [3] (setting [5]) was 7.1e-09 M; in assay [4], 24 nM.

Turning to `COc1ccc(C(=O)C2CCN(C(=O)CCCc3nncc4ccccc34)CC2)cc1` [Compound C250, 1-[4-(4-Methoxy-benzoyl)-piperidin-1-yl]-4-phthalazin-1-yl-butan-1-one], the EC50 in assay [2] worked out at 4.6e-08 M. The 50% inhibitory concentration (IC50) in assay [3] (setting [5]) came out at 1.1e-09 M; in assay [4], 2.8 nM.

In the case of `CCc1cc(=O)[nH]c(CCCC(=O)N2CCC(C(=O)c3ccc(OC)cc3)CC2)n1` [Compound C251, 6-Ethyl-2-{4-[4-(4-methoxy-benzoyl)-piperidin-1-yl]-4-oxo-butyl}-3H-pyrimidin-4-one], in assay [2], the half-maximal effective concentration (EC50) was determined as 7e-08 M. Further, the 50% inhibitory concentration (IC50) in assay [3] (setting [5]) amounted to 2.9e-09 M; in assay [4], 7.8 nM.

As for `CCc1cc(=O)[nH]c(CCCC(=O)N2CCC(C(=O)c3ccc(OC)nc3)CC2)n1` [Compound C253, 6-Ethyl-2-{4-[4-(6-methoxy-pyridine-3-carbonyl)-piperidin-1-yl]-4-oxo-butyl}-3H-pyrimidin-4-one], in assay [2], the EC50 amounted to 7e-07 M. The IC50 stood at 1.9e-08 M in assay [3] (setting [5]) and 31 nM in assay [4].

In the case of `COc1ccc(C(=O)C2CCN(C(=O)CCCc3nc(C(C)C)cc(=O)[nH]3)CC2)cc1` [Compound C254, 6-Isopropyl-2-{4-[4-(4-methoxy-benzoyl)-piperidin-1-yl]-4-oxo-butyl}-3H-pyrimidin-4-one trifluoroacetate], in assay [2], the EC50 worked out at 2.6e-07 M. The half-maximal inhibitory concentration (IC50) turned out to be 1.5e-08 M in assay [3] (setting [5]) and 28 nM in assay [4].

As to `CC(C)c1cc(=O)[nH]c(CCCC(=O)N2CCC(C(=O)c3ccc(F)cc3)CC2)n1` [Compound C255, 2-{4-[4-(4-Fluorobenzoyl)-1-piperidyl]-4-oxo-butyl}-4-isopropyl-1H-pyrimidin-6-one trifluoroacetate], the EC50 in assay [2] amounted to 2.7e-06 M. For the same molecule, the 50% inhibitory concentration (IC50) worked out at 4.9e-08 M in assay [3] (setting [5]) and 110 nM in assay [4].

As to `COc1ccc(C(=O)C2CCN(C(=O)CCCc3nc(C(C)C)cc(=O)[nH]3)CC2)cn1` [Compound C256, 4-Isopropyl-2-{4-[4-(6-methoxypyridine-3-carbonyl)-1-piperidyl]-4-oxo-butyl}-1H-pyrimidin-6-one trifluoroacetate], the EC50 in assay [2] came to 2.6e-06 M. The IC50 in assay [3] (setting [5]) was 6.5e-08 M; in assay [4], 160 nM.

For the molecule `CC(C)c1cc(=O)[nH]c(CCCC(=O)N2CCC(C(=O)c3cnn(C)c3)CC2)n1` [Compound C257, 4-Isopropyl-2-{4-[4-(1-methylpyrazole-4-carbonyl)-1-piperidyl]-4-oxo-butyl}-1H-pyrimidin-6-one trifluoroacetate], the EC50 in assay [2] is 9.3e-06 M. Further, the half-maximal inhibitory concentration (IC50) in assay [3] (setting [5]) was 5.8e-08 M; in assay [4] it was 110 nM.
